Source: article PMC5748433, “Study on the effect of EMD386088, a 5-HT6 receptor partial agonist, in enhancing the anti-immobility action of some antidepressants in rats” (Naunyn-Schmiedeberg's Archives of Pharmacology, 2017)
Several values for one entry are separate records, joined by “and”; a condition that tells them apart may be missing. Equal values may be shown once. Read-outs that look alike come from different tables or passages of the source.

Tests used:
α1-adrenoceptors = tested on: α1-adrenoceptors; set-up: method as in Jastrzębska-Więsek et al. [2013]; details: ref Jastrzębska-Więsek et al. [2013]; cited from earlier work
[1] = tested on: serotonin (5-HT) transporter; set-up: method as in Jastrzębska-Więsek et al. [2013]; details: ref Jastrzębska-Więsek et al. [2013]; cited from earlier work
α2-adrenoceptors = tested on: α2-adrenoceptors; set-up: method as in Jastrzębska-Więsek et al. [2013]; details: ref Jastrzębska-Więsek et al. [2013]; cited from earlier work
opioid μ receptors = tested on: opioid μ receptors; set-up: method as in Jastrzębska-Więsek et al. [2013]; details: ref Jastrzębska-Więsek et al. [2013]; cited from earlier work
[2] = tested on: dopamine transporter (DAT); set-up: method as in Jastrzębska-Więsek et al. [2016]; details: functional in vitro study; ref Jastrzębska-Więsek et al. [2016]; cited from earlier work
rats = test: Open field (OF) test in rats, locomotor/exploratory activity; assay type: in vivo, rat; details: 2.5 mg/kg i.p. 30 min before test, 5-min session, mean ± SEM, 2.5 mg/kg
Method: All drugs were dissolved in distilled water immediately before administration in a volume of 2 mL/kg. All the compounds were administered intraperitoneally (i.p.). […] Control animals received vehicle according to the same schedule.
The experiment was performed using Motor Monitor System (Campden Instruments, Ltd., UK) consisted of two SmartFrame Open Field stations (40 × 40 × 38 cm) with 16 × 16 beams, located in sound attenuating chambers and connected to PC software by control chassis. Individual vehicle- or drug-injected animals were gently placed in the center of the station. An automated motor monitor system recorded ambulation (the number of crossings in X and Y axis), the number of rearing episodes, and total distance covered by a rat for 5 min.
The data of behavioral studies were evaluated using two-way analysis of variance (ANOVA) followed by Bonferroni’s post hoc test, p < 0.05 was considered significant.

dopamine D3 = tested on: dopamine D3; set-up: method as in Jastrzębska-Więsek et al. [2013]; details: ref Jastrzębska-Więsek et al. [2013]; cited from earlier work
[3] = Distribution of EMD386088 in rats' brain (LC/MS/MS, non-compartmental); assay type: in vivo, rat
Method: Blood samples were collected at 0 min (predose), 5 min, 15 min, 30 min, 60 min, 120 min, and 240 min after injections. The blood was collected from right ventricle under anesthesia using a mixture of ketamine (50 mg/kg)/xylasine (8 mg/kg) in the ratio of 3:1, and 0.025 mL of a mixture for 10 g body weight was injected i.p. 10 min before planned blood collection. Blood and brain samples were collected under general anesthesia induced by i.p. injections of ketamine (50 mg/kg)/xylasine (8 mg/kg). The blood samples were taken into heparinized tubes, immediately centrifuged at 3500 rpm for 10 min, and plasma was collected. After the blood was drawn, the rat’s spinal cord was cut and the cerebral tissue was removed, and after dissection washed in PBS saline. The brain and plasma samples were immediately frozen at − 80 °C for LC/MS/MS analysis.
Pharmacokinetic parameters were calculated by a non-compartmental approach from the average concentration values, using Phoenix WinNonlin software (Certara, Princeton, NJ 08540 USA). First order elimination rate constant (λz) was calculated by linear regression of time versus log concentration.
The quantification of studied compounds in plasma and brain samples was done using HPLC Agilent 1100 system (Agilent Technologies, Waldbronn, Germany) coupled to the triple quadrupole mass spectrometer API 2000 (ABSciex, Framingham, Massachusetts, USA) equipped with an electrospray ion source. After preparation, the samples were injected (20 μL) onto XBridge C18 (2.1 mm × 30 mm, 3.5 μm, Waters, Milford, Massachusetts, USA) analytical column. The mobile phase consisted of ACN with 0.1% formic acid (A) and water with 0.1% formic acid (B) were delivered in gradient elution started with 90% of eluent B, increasing during 2 min to 90% of eluent A, maintained to 3 min, and then returned during 5 min to 90% of eluent B, and maintained 90% of eluent B during 5 min at a flow rate of 300 μL/min. The total time of analysis was 15 min. Electrospray ionization process was performed in positive ionization and the data acquisition was carried out in multiple reaction monitoring mode (MRM) for EMD386088 and its internal standard (nebivolol). The ion spray source settings were as follows: spray voltage: 5 kV, heater temperature: 350 °C, curtain gas: 15 psi, source gas 1: 35 psi, source gas 2: 10 psi. The ions measured were m/z 247.3 (Q1) and m/z 168.2 (Q3) for EMD386088, and m/z 406.2 (Q1) and m/z 151.1 (Q3) for IS.
A sample volume of 50 μL of plasma or brain homogenate was transferred into the clean Eppendorf tube and spiked with 5 μL of IS solution (1 μg/mL) obtaining the final concentration of 100 ng/mL. After 5 min of mixing (1500 rpm), proteins were precipitated using 150 μL ACN. After 10 min of samples shaking (1500 rpm), the incubation step was performed (10 min, 4 °C). Next, samples were centrifuged (10,000 rpm, 10 min, 4 °C) and the supernatant was transferred into chromatographic vial for LC/MS/MS analysis. The brain homogenate was prepared maintaining the tissue: phosphate-buffered saline (PBS) at a ratio of 1:5. The homogenization was carried out employing IKA® T10 Basic ULTRA-TURRAX disperser (IKA Werke GmbH & Co. KG, Staufen, Germany). After homogenization, 50 μL of sample was collected for further preparation. All samples were stored on ice during the preparation process.

recombinant human CYP3A4 = recombinant human CYP3A4 (Homo sapiens, UniProt P08684); details: recombinant human CYP3A4, P450-Glo, 0.025 to 25 μM
Method: The enzymatic reactions were performed in white polystyrene, flat-bottom Nunc™ MicroWell™ 96-Well Microplates (Thermo Scientific, Waltham, MA USA). The luminescence signal was measured with a microplate reader in luminescence mode (EnSpire, PerkinElmer, Waltham, MA USA).

[4] = rat brain, EMD386088 2.5 mg/kg i.p. jointly with imipramine (IMI) 15 mg/kg i.p.
[5] = rat, brain, ip, 2.5 mg/kg, rat brain, EMD386088 2.5 mg/kg i.p. alone
[6] = rat, brain, ip, 2.5 mg/kg, rat brain, EMD386088 2.5 mg/kg i.p. jointly with imipramine (IMI) 15 mg/kg i.p.
[7] = rat, brain, ip, 5 mg/kg, rat brain, EMD386088 5 mg/kg i.p. alone

Sequence of recombinant human CYP3A4 (P08684 whole entry): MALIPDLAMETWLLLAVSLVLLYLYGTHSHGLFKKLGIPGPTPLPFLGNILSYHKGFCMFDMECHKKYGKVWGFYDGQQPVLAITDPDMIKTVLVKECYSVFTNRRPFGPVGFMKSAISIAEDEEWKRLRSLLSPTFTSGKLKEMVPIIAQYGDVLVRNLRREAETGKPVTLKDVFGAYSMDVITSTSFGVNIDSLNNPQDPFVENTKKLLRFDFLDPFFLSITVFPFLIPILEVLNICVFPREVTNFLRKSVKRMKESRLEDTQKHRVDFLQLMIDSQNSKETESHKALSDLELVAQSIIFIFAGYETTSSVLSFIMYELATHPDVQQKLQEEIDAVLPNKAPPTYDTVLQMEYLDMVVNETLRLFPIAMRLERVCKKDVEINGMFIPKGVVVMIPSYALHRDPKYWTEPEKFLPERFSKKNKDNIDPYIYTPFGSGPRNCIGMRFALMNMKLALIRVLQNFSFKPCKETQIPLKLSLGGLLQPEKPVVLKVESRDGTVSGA

Cc1[nH]c2ccc(Cl)cc2c1C1=CCNCC1.Cl [EMD386088, 5-chloro-2-methyl-3-(1,2,3,6-tetrahydro-4-pyridinyl)-1H-indole hydrochloride]
affinity for α1-adrenoceptors (α1-adrenoceptors): no affinity
affinity for serotonin (5-HT) transporter [1]: no affinity
affinity for α2-adrenoceptors (α2-adrenoceptors): no affinity
affinity for opioid μ receptors (opioid μ receptors): no affinity
affinity for dopamine transporter (DAT) [2]: significant affinity
Exploratory activity Ambulation X (rats): 261 ± 29 and 262 ± 28 and 262 ± 35 and 263 ± 28
Exploratory activity Ambulation Y (rats): 261 ± 31 and 267 ± 37 and 262 ± 23
Exploratory activity Rearings (rats): 90 ± 3 and 91 ± 4 and 89 ± 4 and 92 ± 9
Exploratory activity Total distance (cm) (rats): 2677 ± 232 cm and 2721 ± 196 cm and 2644 ± 220 cm and 2722 ± 145 cm
affinity for dopamine D3 (dopamine D3): no affinity
Tmax ([3]; ip, rat brain, EMD386088 2.5 mg/kg i.p. alone, read-out: t max (converted)): 2 h
Tmax ([3]; ip, rat brain, EMD386088 5 mg/kg i.p. alone, read-out: t max (converted)): 2 h
AUC0 → t ([3]; rat brain, EMD386088 2.5 mg/kg i.p. alone): 41,936.2 ng ⋅ min/g
AUC0 → t [3, 4]: 56,428.6 ng ⋅ min/g
Tmax [3, 4]: 2 h
AUC0 → t ([3]; rat brain, EMD386088 5 mg/kg i.p. alone): 84,462.8 ng ⋅ min/g
Cmax [3, 5]: 321 ng/g
MRT [3, 5]: 1.9 h
Cmax [3, 6]: 277 ng/g
MRT [3, 6]: 2.12 h
Cmax [3, 7]: 640 ng/g
MRT [3, 7]: 1.91 h
Kp ([3]; rat, brain, ip, rats, EMD386088 2.5 mg/kg i.p. alone, calculated on the basis of AUC0 → t values, read-out: brain/plasma ratio): ~19
Tmax ([3]; rat, brain, ip, rats, after i.p. administration, read-out: t max in the brain (converted)): 2 h
decrease in penetration on coadministration with imipramine ([3]; rats, EMD386088 with imipramine vs alone): 2.5 fold
influence on CYP3A4 activity (recombinant human CYP3A4): did not influence on CYP3A4 activity
